Test results: patent US9833486B2, “Compositions comprising selenium and use of same for the treatment and prevention of disease or conditions associated with mitochondrial dysfunction” (ALLTECH, INC., priority 2013, dated 2017)
Several values for one entry are separate records, joined by “and”; a condition that tells them apart may be missing. Equal entries are not always repeated. Entries after “also recorded” stand apart in the source; their conditions may differ. *1 amine or outer side, *2 acyl side, *3 side chain or, on linkers, in order; H or OH if unused. Where a SMILES comes first, the peptide text is derived from it. Bridges are numbered along the chain shown (N, C = ends). Roman numbers before positions name the chains, in order. [ ]: non-standard residue; d: D form. γGlu = O=C(O)[C@H](CCC(=O)[*:2])N[*:1]; Sec = N[C@@H](C[SeH])C(=O)O

Legend:
[1] = Oxygen radical absorbance capacity (ORAC) antioxidant assay; conditions: Trolox Equivalents; singly or in combination
Method: Briefly, samples of selenium containing compounds (e.g., identified in Example 1) were analyzed using the Trolox assay kit, according to the manufacturer's instructions. Compounds were tested singly or in combination (at concentrations ranging from 0.05 to 5 μM) to examine for potential synergies, antagonisms or purely additive effects.

[2] = tested on: rat brain purified mitochondria; assay: Mitochondrial bioenergetics, oxygen consumption rates (Seahorse flux analyzer); format: biochemical; set-up: key to Trend of effect on mitochondrial bioenergetics: 1: Positive Trend; 2: Positive/Negative trend; 3: Negative Trend; 4: No Change; conditions: for Trend of effect on mitochondrial bioenergetics: Table 7; for STATE V (State VFCCP, complex I dependent maximum respiratory capacity) / STATE Vsucc (complex II dependent maximum respiratory capacity) / STATE III (OCR, ATP synthesis): rat brain purified mitochondria 5 μg/well; for STATE V (State VFCCP, complex I dependent maximum respiratory capacity) / STATE Vsucc (complex II dependent maximum respiratory capacity) / STATE III (OCR, ATP synthesis) / STATE III % change / STATE V % change / STATE Vsucc % change / Effect on mitochondrial activity / bioenergetics profile (in words): 500 ppb; for STATE V (State VFCCP, complex I dependent maximum respiratory capacity): CTRL 182.1; for STATE Vsucc (complex II dependent maximum respiratory capacity): CTRL 350.1; for STATE III (OCR, ATP synthesis): CTRL 432.6; for STATE III % change / STATE V % change / STATE Vsucc % change: vs control; for STATE III % change / STATE V % change / STATE Vsucc % change / Effect on mitochondrial activity / bioenergetics profile (in words): Seahorse
Method: Mitochondria isolated from rat brain were chosen for this purpose for a number of reasons, including a) the ease with which mitochondria can be isolated from soft tissue, such as brain and b) the fact that brain tissue has a high demand for glucose and oxygen.
Experiments were conducted as follows: a variety of concentrations of selenium containing compounds were tested ranging from low (50 ppb), mid (500 ppb) and high (1 ppm). […] Adult rat brain ficoll purified mitochondria were isolated and incubated with the individual selenium containing compounds for 30 minutes at 37 C prior to being loaded into a Seahorse Biosciences flux analyzer in triplicate. OCR (Oxygen Consumption Rates) parameters were measured in three respiratory states including ATP synthesis (State III), Complex I dependent (NADH-driven) Maximum Respiratory Capacity (State VFCCP) and Complex II (FADH-driven) dependent Maximum Respiratory Capacity (State Vsucc). Sea Horse assay was performed as described (See, e.g., Sauerbeck et al., J Neurosci Methods. 2011 May 15; 198(1): 36-43; Seahorse XF, Seahorse Bioscience Inc).

[3] = tested on: mice; assay: Expression of oxidative phosphorylation (OXPHOS) molecules in liver; format: in vivo, mouse
Method: Utilizing the animal model described in Example 2, experiments were conducted to analyze the expression of molecules that regulate oxidative phosphorylation (OXPHOS) in the liver of subjects administered a composition comprising selenium.

[4] = tested on: Complex IV; assay: Complex IV enzyme activity in isolated cortical mitochondria; format: biochemical, rat; conditions: 0, 50, 500, 1000 PPB
[5] = tested on: mitochondrial Complex I; assay: Mitochondrial Complex I activity in isolated cortical mitochondria; format: biochemical, rat; conditions: 0, 50, 500, 1000 PPB
Method: (§1) In order to measure pyruvate dehydrogenase complex (PDHC) activity as well as mitochondrial Complex I activity, cortical mitochondria were isolated from adult SD rats using a ficoll gradient method. Methylselenoadenosine was tested at four concentration ranges (0, 50, 500 and 1000 PPB). All assays were done in triplicate with co-incubation of the individual compounds with mitochondria (60 μg mitochondrial protein/well) in 100 μl assay system using standard techniques in a 96-well fluorescence plate reader.

[6] = tested on: mitochondria; assay: Mitochondrial respiration by oxytherm (Clark-type electrode); format: biochemical, rat; conditions: 60 μg mitochondrial protein, 500 ppb, 30 minutes
Method: The bioactivities of selenium containing peptide LVSe-MR (C22H44N7O5Se) (#6) and methylselenoadenosine (C11H15N5O3Se) (#9) were analyzed utilizing oxytherm (Clark-type electrode) (See, e.g., Chance and Williams, J Biol Chem, 1955, 217, 383-393; Sullivan et al., J. Bioenerg. Biomembr. 36, 353-356.). Oxytherm analysis allows the determination of oxygen uptake or evolution measurements across a broad range of applications including mitochondrial and cellular respiration. For this experiment, 60 μg mitochondrial protein was co-incubated with either compound LVSe-MR (C22H44N7O5Se) or methylselenoadenosine (500 ppb) or their corresponding equivalent concentrations of respective controls (LVMR and methylthioadenosine, respectively) for 30 minutes prior to injection into the oxytherm chamber. Mitochondrial activity (measured and presented as the rate of mitochondrial respiration observed as % change in nmols O2/min/mg of mitochondrial protein) was measured in the presence of each compound.

[7] = tested on: pyruvate dehydrogenase complex (PDHC); assay: PDHC enzyme activity in isolated cortical mitochondria; format: biochemical, rat
Method: as §1

## C[Se]CC[C@H](N)C(=O)O [#4, L-Selenomethionine]
[1]
  TE Value: 1.228 TE

## N[C@@H](CCC(=O)N[C@@H](C[Se][Se]C[C@H](NC(=O)CC[C@H](N)C(=O)O)C(=O)NCC(=O)O)C(=O)NCC(=O)O)C(=O)O [#8, Selenoglutathione dimer] (I: γGlu-[Sec]-Gly-OH / II: γGlu-[Sec]-Gly-OH; diselenide I:1-II:1)
[2]
  Trend of effect on mitochondrial bioenergetics: #8^4
  STATE V (State VFCCP, complex I dependent maximum respiratory capacity): 192.3
  STATE Vsucc (complex II dependent maximum respiratory capacity): 371.0
  STATE III (OCR, ATP synthesis): 424.0
  STATE III % change: −2.1%
  STATE V % change: 5.7%
  STATE Vsucc % change: 6.0%

## N[C@@H](CCC(=O)O)C(=O)N[C@@H](CS)C(=O)O [#30, Glutamylcysteine, reference compound] (H-Glu-Cys-OH)
[2]
  Trend of effect on mitochondrial bioenergetics: #30^2
  STATE V (State VFCCP, complex I dependent maximum respiratory capacity): 153.8
  STATE Vsucc (complex II dependent maximum respiratory capacity): 305.4
  STATE III (OCR, ATP synthesis): 423.2
  STATE III % change: −2.3%
  STATE V % change: −15.5%
  STATE Vsucc % change: −12.7%

## C[Se]CC[C@H](N)C(=O)O [selenomethionine]
[3]
  expression of ATP synthase: significant increase
  expression of ATPase inhibitory factor 1: significantly reduced
  expression of ATPase, H+ transporting lysosomal, V1 subunit H: significantly reduced
  expression of ATPase, H+ transporting, V1 subunit A: significantly reduced
  expression of cytochrome c oxidase, subunit Va: significant increase
  regulation of liver specific mitochondrial activity, compared with selenium enriched yeast: significantly less effective

## Glutamylselenocysteine dimer [#10]
[2]
  Effect on mitochondrial activity / bioenergetics profile (in words): negative effect
  Trend of effect on mitochondrial bioenergetics: #10^3
  STATE V (State VFCCP, complex I dependent maximum respiratory capacity): 112.7
  STATE Vsucc (complex II dependent maximum respiratory capacity): 254.4
  STATE III (OCR, ATP synthesis): 352.1
  STATE III % change: −18.7%
  STATE V % change: −38.1%
  STATE Vsucc % change: −27.3%
[2]; decrease vs control
  decreased ATP synthesis (State III): ~19%

## Methylselenoadenosine [#9]
[4]
  Complex IV enzyme activity (in words): No changes
[2]
  Effect on mitochondrial activity / bioenergetics profile (in words): positive increases in all three states of respiration; also recorded: remarkably increase mitochondrial bioenergetics profiles
  Trend of effect on mitochondrial bioenergetics: #9^1
  STATE V (State VFCCP, complex I dependent maximum respiratory capacity): 210.3^1
  STATE Vsucc (complex II dependent maximum respiratory capacity): 437.1^1
  STATE III (OCR, ATP synthesis): 507.8^1
  STATE III % change: 17.3% and 17.3^1%
  STATE V % change: 15.6% and 15.6^1%
  STATE Vsucc % change: 25% and 24.9^1%
[5]
  Complex I activity (in words): increased
[6]
  State III increase compared to control: 29.9%
  State VFCCP increase compared to control: 17.3%
  State Vsucc increase compared to control: 15.3%
[1]
  TE Value: 0.722 TE
[7]; 0, 50, 500, 1000 PPB
  PDHC activity (in words): increased
[7]; 0-1000 PPB, depending upon the concentration, p<0.05 at 1000 PPB
  enhanced PDHC enzyme activity: 30-57%
